# Key:
# [1] = Microsomal stability in rat liver microsomes assessed as half life; format: ADME, Microsome
# [2] = Microsomal stability in human liver microsomes assessed as half life; format: ADME, Microsome
# [3] = molecular target: T1, Nuclear receptor ROR-gamma (Homo sapiens, UniProt P51449); test: Partial agonist activity at human RORgamma in cytostim stimulated human PBMC cells assessed as […] in differentiation of TH17 cells by measuring IL-17 production preincubated with cytostim for 72 hrs by ELISA; format: cell-based
# T1 sequence (P51449 whole entry): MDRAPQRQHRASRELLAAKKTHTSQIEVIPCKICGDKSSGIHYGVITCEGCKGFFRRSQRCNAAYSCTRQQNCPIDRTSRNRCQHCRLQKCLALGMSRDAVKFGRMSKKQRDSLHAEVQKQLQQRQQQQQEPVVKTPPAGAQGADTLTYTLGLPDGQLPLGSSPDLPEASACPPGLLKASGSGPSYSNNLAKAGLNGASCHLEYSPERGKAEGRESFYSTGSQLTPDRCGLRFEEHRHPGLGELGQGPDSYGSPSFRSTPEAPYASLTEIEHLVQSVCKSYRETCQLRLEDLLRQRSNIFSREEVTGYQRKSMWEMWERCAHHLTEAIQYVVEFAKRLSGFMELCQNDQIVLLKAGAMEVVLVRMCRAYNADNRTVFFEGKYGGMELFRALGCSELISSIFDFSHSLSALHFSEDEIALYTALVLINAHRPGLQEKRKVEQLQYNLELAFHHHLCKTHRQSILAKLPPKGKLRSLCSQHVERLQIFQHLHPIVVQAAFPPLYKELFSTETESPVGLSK
# [4] = molecular target: T1, Nuclear receptor ROR-gamma; test: Agonist activity at N-terminal GST tagged human RORgamma LBD using fluorescein-D22 as coactivator incubated for 60 mins by Lanthascreen TR-FRET assay
# [5] = molecular target: T2, Nuclear receptor ROR-gamma (Homo sapiens) (UniProt P51449); test: Partial agonist activity at human RORgamma in cytostim stimulated human PBMC cells assessed as increase in IL-17 production by measuring maximal efficacy preincubated with cytostim for 72 hrs by ELISA relative to control; format: cell-based; conditions: filed as partial agonist
# T2 sequence (whole entry): T1 sequence (P51449 whole entry)
# [6] = Half life in rat at 1 mg/kg, iv; format: ADME, organism-based; conditions: in vivo
# [7] = AUC (0 to t) in mouse at 2 mg/kg, po; format: ADME, organism-based; design: dose 2 mg/kg, route po; conditions: in vivo
# [8] = Volume of distribution in dog at 2 mg/kg, po; format: ADME, organism-based, Canis lupus familiaris; conditions: in vivo
# [9] = Effects of compound in IL-17 production in CD3/CD28-stimulated C57BL/6 mouse tumor lymphocytes assessed as increase in IL-17 production at 10 mg/kg by ELISA (Rvb= 19 +/- 5 pg/ml); format: functional, Lymphocyte
# [10] = Cmax in mouse at 2 mg/kg, po; format: ADME, organism-based; design: dose 2 mg/kg, route po; conditions: in vivo
# [11] = Effects of compound in IL-17 production in CD3/CD28-stimulated C57BL/6 mouse tumor lymphocytes assessed as increase in IL-17 production at 10 mg/kg in combination with anti-mouse PD1 monoclonal antibody at 5 mg/kg by ELISA (Rvb= 29 +/- 9 pg/ml); format: functional, Lymphocyte
# Mus musculus [12] = test: Toxicity in C57BL/6 mouse infected with mouse MC38 cells assessed as change in body weight at 10 mg/kg, po administered once daily for 25 days and measured twice a week; format: organism-based, MC-38; conditions: in vivo, 600 h, time 25 day
# [13] = Effects of compound in IFNgamma production in CD3/CD28-stimulated C57BL/6 mouse tumor lymphocytes assessed as increase in IFNgamma production at 10 mg/kg in combination with anti-mouse PD1 monoclonal antibody at 5 mg/kg by ELISA (Rvb= 1467 +/- 878 pg/ml); format: functional, Lymphocyte
# [14] = Oral bioavailability in rat; format: ADME, organism-based; conditions: in vivo
# [15] = Drug exposure in tumor of C57BL/6 mouse injected with mouse MC38 cells at 10 mg/kg, po measured 3 hrs post dose on day 25 in combination with anti-mouse PD1 monoclonal antibody at 5 mg/kg, ip by LC/MS analysis; format: ADME, organism-based, Neoplasm, MC-38; conditions: time 25 day, read-out: Drug uptake
# [16] = Half life in dog at 2 mg/kg, po; format: ADME, organism-based, Canis lupus familiaris; conditions: in vivo
# [17] = Drug exposure in plasma of C57BL/6 mouse injected with mouse MC38 cells at 10 mg/kg, po measured 3 hrs post dose on day 25 in combination with anti-mouse PD1 monoclonal antibody at 5 mg/kg, ip by LC/MS analysis; format: ADME, organism-based, MC-38; conditions: time 25 day
# [18] = AUC (0 to t) in dog at 2 mg/kg, po; format: ADME, organism-based, Canis lupus familiaris; design: dose 2 mg/kg, route po; conditions: in vivo
# [19] = Volume of distribution in mouse at 2 mg/kg, po; format: ADME, organism-based; conditions: in vivo
# [20] = Volume of distribution in rat at 2 mg/kg, po; format: ADME, organism-based; conditions: in vivo
# [21] = Cmax in dog at 2 mg/kg, po; format: ADME, organism-based, Canis lupus familiaris; design: dose 2 mg/kg, route po; conditions: in vivo
# [22] = AUC (0 to t) in rat at 1 mg/kg, iv; format: ADME, organism-based; design: dose 1 mg/kg, route iv; conditions: in vivo
# [23] = AUC (0 to t) in mouse at 1 mg/kg, iv; format: ADME, organism-based; design: dose 1 mg/kg, route iv; conditions: in vivo
# Mus musculus [24] = test: Toxicity in C57BL/6 mouse injected with mouse MC38 cells assessed as change in body weight at 10 mg/kg, po administered once daily for 25 days in combination with anti-mouse-PD1 monoclonal antibody at 5 mg/kg, ip and measured twice a week; format: organism-based, MC-38; conditions: in vivo, 600 h, time 25 day
# MC-38 [25] = test: Antitumor activity against mouse MC38 cells injected C57BL/6 mouse syngenic model assessed as tumor growth inhibition at 10 mg/kg, po administered once daily for 25 days relative to control; format: functional; conditions: C57BL/6, MC-38, 600 h, time 25 day, read-out: TGI
# [26] = Half life in dog at 0.5 mg/kg, iv; format: ADME, organism-based, Canis lupus familiaris; conditions: in vivo
# [27] = AUC (0 to t) in rat at 2 mg/kg, po; format: ADME, organism-based; design: dose 2 mg/kg, route po; conditions: in vivo
# [28] = Half life in mouse at 2 mg/kg, po; format: ADME, organism-based; conditions: in vivo
# [29] = Volume of distribution in rat at 1 mg/kg, iv; format: ADME, organism-based; conditions: in vivo
# [30] = Cmax in rat at 2 mg/kg, po; format: ADME, organism-based; design: dose 2 mg/kg, route po; conditions: in vivo
# [31] = Drug exposure in plasma of C57BL/6 mouse injected with mouse MC38 cells at 10 mg/kg, po measured 3 hrs post dose on day 25 by LC/MS analysis; format: ADME, organism-based, MC-38; conditions: time 25 day
# [32] = Clearance in dog at 0.5 mg/kg, iv; format: ADME, organism-based, Canis lupus familiaris; conditions: in vivo
# [33] = Effects of compound in IFNgamma production in CD3/CD28-stimulated C57BL/6 mouse tumor lymphocytes assessed as increase in IFNgamma production at 10 mg/kg by ELISA (Rvb= 262 +/- 81 pg/ml); format: functional, Lymphocyte
# MC-38 [34] = test: Antitumor activity against mouse MC38 cells injected C57BL/6 mouse syngenic model assessed as tumor growth inhibition at 10 mg/kg, po administered once daily for 25 days in combination with anti-mouse PD-1 monoclonal antibody at 5 mg/kg, ip relative to control; format: functional; conditions: C57BL/6, MC-38, 600 h, time 25 day, read-out: TGI
# [35] = Oral bioavailability in mouse; format: ADME, organism-based; conditions: in vivo
# [36] = Oral bioavailability in dog; format: ADME, organism-based, Canis lupus familiaris; conditions: in vivo
# [37] = Clearance in rat at 1 mg/kg, iv; format: ADME, organism-based; conditions: in vivo
# [38] = Volume of distribution in mouse at 1 mg/kg, iv; format: ADME, organism-based; conditions: in vivo, iv, 1 mg/kg
# [39] = Volume of distribution in dog at 0.5 mg/kg, iv; format: ADME, organism-based, Canis lupus familiaris; conditions: in vivo
# [40] = Drug exposure in tumor of C57BL/6 mouse injected with mouse MC38 cells at 10 mg/kg, po measured 3 hrs post dose on day 25 by LC/MS analysis; format: ADME, organism-based, Neoplasm, MC-38; conditions: time 25 day, read-out: Drug uptake
# [41] = Half life in mouse at 1 mg/kg, iv; format: ADME, organism-based; conditions: in vivo, iv, 1 mg/kg
# [42] = Half life in rat at 2 mg/kg, po; format: ADME, organism-based; conditions: in vivo
# [43] = AUC (0 to t) in dog at 0.5 mg/kg, iv; format: ADME, organism-based, Canis lupus familiaris; design: dose 0.5 mg/kg, route iv; conditions: in vivo
# [44] = molecular target: T1, Nuclear receptor ROR-gamma; test: Agonist activity at human RORgamma in cytostim stimulated human PBMC cells assessed as increase in differentiation of TH17 cells by measuring IL-17 production preincubated with cytostim for 72 hrs by ELISA; format: cell-based
# [45] = molecular target: T1, Nuclear receptor ROR-gamma; test: Antagonist activity at human RORgamma in cytostim stimulated human PBMC cells assessed as decrease in differentiation of TH17 cells by measuring IL-17 production preincubated with cytostim for 72 hrs by ELISA; format: cell-based
# [46] = molecular target: T1, Nuclear receptor ROR-gamma; test: Antagonist activity at N-terminal GST tagged human RORgamma LBD using fluorescein-D22 as coactivator incubated for 60 mins by Lanthascreen TR-FRET assay
# [47] = molecular target: T2, Nuclear receptor ROR-gamma (Homo sapiens); test: Inverse agonist activity at human RORgamma in cytostim stimulated human PBMC cells assessed as […] in IL-17 production by measuring maximal efficacy preincubated with cytostim for 72 hrs by ELISA relative to control; format: cell-based; conditions: filed as inverse agonist
structure (smiles),measurement,setting,value
CCS(=O)(=O)c1ccc(CNC(=O)c2ccc3c(c2)cc(Cc2ccccc2OC)n3C(C)C)cc1,half-life,[1],12 min
same,half-life,[2],13 min
CCS(=O)(=O)c1ccc(CNC(=O)c2ccc3c(c2)cc(Cc2ccccc2C(F)(F)F)n3C(C)C)cc1,half-life,[1],43 min
same,half-life,[2],39 min
CCc1ccccc1Cc1cc2cc(C(=O)NCc3ccc(S(=O)(=O)CC)cc3)ccc2n1C(C)C,half-life,[1],12 min
same,EC50,[3],2 nM
same,EC50,[4],25 nM
same,Emax,[5],79%
same,half-life,[2],13 min
CCS(=O)(=O)c1ccc([C@H](CO)NC(=O)c2ccc3c(c2)cc(Cc2ccc(Cl)cc2C(F)(F)F)n3CCF)cc1,half-life,[6],160 min
same,AUC(0-t),[7],50600 ng·h/mL
same,Vd,[8],0.873 L/kg
same,Activity,[9],36 pg/mL
same,Cmax,[10],3660 ng/mL
same,Activity,[11],81 pg/mL
same,Activity,Mus musculus [12],Non-Toxic
same,Activity,[13],2455 pg/mL
same,bioavailability,[14],29.4%
same,concentration at 600 h,[15],2320 ng/mL
same,half-life,[16],708 min
same,concentration at 600 h,[17],10800 ng/mL
same,AUC(0-t),[18],29100 ng·h/mL
same,Vd,[19],0.637 L/kg
same,Vd,[20],25.7 L/kg
same,Cmax,[21],2080 ng/mL
same,AUC(0-t),[22],1050 ng·h/mL
same,AUC(0-t),[23],79800 ng·h/mL
same,Activity,Mus musculus [24],Non-Toxic
same,inhibition in vivo at 10 mg/kg,MC-38 [25],37%
same,half-life,[26],528 min
same,AUC(0-t),[27],618 ng·h/mL
same,half-life,[28],672 min
same,Vd,[29],3.65 L/kg
same,Cmax,[30],55.7 ng/mL
same,concentration at 600 h,[31],9120 ng/mL
same,clearance,[32],0.954 mL/min/kg
same,Activity,[33],1217 pg/mL
same,inhibition in vivo at 10 mg/kg,MC-38 [34],62%
same,bioavailability,[35],31.7%
same,bioavailability,[36],84.2%
same,clearance,[37],16.2 mL/min/kg
same,Vd,[38],0.877 L/kg
same,Vd,[39],0.654 L/kg
same,concentration at 600 h,[40],2020 ng/mL
same,t1/2,[41],302 min
same,half-life,[42],358 min
same,AUC(0-t),[43],8640 ng·h/mL
CCS(=O)(=O)c1ccc(CNC(=O)c2ccc3c(c2)cc(Cc2ccc(Cl)cc2C(F)(F)F)n3C(C)C)cc1,half-life,[1],116 min
same,EC50,[44],8 nM
same,EC50,[4],11 nM
same,half-life,[2],182 min
CCS(=O)(=O)c1ccc(CNC(=O)c2ccc3c(c2)cc(Cc2ccc(C(F)(F)F)cc2)n3C(C)C)cc1,EC50,[45],109 nM
same,EC50,[46],150 nM
same,Emax,[47],109%
CCS(=O)(=O)c1ccc(CNC(=O)c2ccc3c(c2)cc(Cc2ccccc2Br)n3C(C)C)cc1,half-life,[1],12 min
same,half-life,[2],15 min
